Patent publication US20260274794A1, “COMPOUNDS, COMPOSITIONS, AND METHOD OF INHIBITING TAU PROTEIN AND ALPHASYNUCLEIN AGGREGATION” (Purdue Research Foundation, priority 2023, published 2026)
Entries after “also recorded” stand apart in the source; their conditions may differ.

Assays:
α-syn = α-syn (Homo sapiens, UniProt P37840); assay: Transmission electron microscopy of α-syn fibrils; assay type: biochemical; conditions: 60 μM α-syn: 600 μM compound, 24-hours exposure
Method: (§1) For the examination of ultrastructural changes, 60 μM of proteins (α-syn and tau isoform 2N4R) in contact with DMSO or 600 μM of compound were incubated in a 10 mM PBS buffer (pH 7.4) for 24 h at 37° C. (molar ratio 1:10). Samples at the end of tau ThT kinetics of fibril formation were also analyzed at similar molar ratio with 6 time less concentrated samples. For the preparation of grids prior examination, a volume of 10 μL if each sample was applied on a 400-mesh Formvar-carbon-coated copper grid (Electron Microscopy Sciences, Hatfield, PA). The grids were incubated for 1 minute with the sample and after washed three times with distilled water, After being air-dried, a fresh solution of 1% uranyl acetate was applied for 1 minute. Solution was absorbed with filter paper and grids were air-dried. Evaluation of grids were performed using a transmission microscope (JEOL 1400 Flash, Japan). Transmission electron micrographs were captured using an accelerating voltage of 100 kV and magnification of 40 k.
(§2) To confirm that the reduction of ThT fluorescence observed with compounds 2, 8, and 17 was due to the reduction in protein fibrillization rather than interference with ThT [31], transmission electron microscopy (TEM) of α-syn and tau isoform 2N4R with these same compounds was utilized to visualize direct changes in α-syn and tau isoform 2N4R fibril morphology after 24-hours exposure (FIG. 5). […] Results were reproduced using the tau isoform 2N4R and different compounds at the above-mentioned higher concentrations using the identical molar ratio and incubation time. […] Compound 2 was the only candidate resulting in a grid quasi exempt of fibrils.

tau isoform 2N4R [1] = molecular target: T1, tau isoform 2N4R (Homo sapiens, UniProt P10636); assay: ThT fluorescence assay of tau isoform 2N4R fibril formation; assay type: biochemical; conditions: for effect on tau isoform 2N4R fibril formation (ThT): compound 100 μM, tau 2N4R 6 μM; for tau isoform 2N4R fibrillization, ThT dose-response: compound 3.125-100 μM, tau 6 μM, plateau phase
T1 construct: made in house; host or cells: E. coli BL21 (DE3), vector pRK172
Method: ThT fluorescence is routinely established assay to follow the kinetics of α-syn fibril formation with different drug candidate treatments. Compounds were first tested at a final of concentration of 100 μM and α-syn and 2N4R tau were prepared at 2 μM and 6 μM, respectively. Compounds with highest anti-fibrillary activity were tested at 3.125, 6.25, 12.5, 25, 50, and 100 μM to obtain dose-response curves.
Concerning the non-phosphorylated tau (isoform 2N4R) kinetics of fibril formation, ThT was performed with the tau protein solution was diluted to a final concentration of 6 μM in PBS (pH 7.4) supplemented with 1.5 μM heparin, 20 μM ThT, 2.5 mM DTT, and 100 μM compound. Aliquots of the diluted protein solution (100 μL each) were pipetted into the wells of a 96-well plate, and a Teflon ball was added to each well. The plate was incubated at 37° C. with constant shaking at 1,000 rpm in a Tecan Stark plate reader. ThT fluorescence was measured every 15 min with excitation and emission wavelengths of 440 nm and 480 nm, and the data were plotted using GraphPad Prism.
Various structural analogs were first tested at a final concentration of 100 μM in the presence of tau 2N4R at 6 μM. Compounds 2, 4-8, and 17 were pre-selected with α-syn ThT assay prior to evaluation on the tau isoform 2N4R.

tau isoform 2N4R [2] = molecular target: T1, tau isoform 2N4R; assay: Transmission electron microscopy of tau isoform 2N4R fibrils; assay type: biochemical; conditions: compound 100 μM, 50-hours exposure; reproduced at higher concentrations, molar ratio 1:10
Method: as §1, §2

[3] = Kinetics of solubility in ThT buffer; assay type: physicochemical; conditions: ThT buffer: 1×PBS pH 7.4, 300 mM NaCl, 0.5 mM SDS
Method: Kinetics of solubility analysis was performed at the MSU Medicinal Chemistry Core facility.

[4] = system: M17D-TR/αS-3K::YFP neuroblastoma cells; assay: α-Syn inclusion assay in dox-inducible neuroblastoma cells; assay type: cell-based; conditions: for reduction of inclusions: lower concentrations (below 40 μM)
Method: Dox-inducible neuroblastoma cells M17D-TR/αS-3K::YFP were used according to the published experimental procedure. For this cell-based assay, the cellular density consisted of 30,000 cells per well in a 96-well plate format. After 24 h of seeding the plates, compounds were introduced at ranging concentrations of 5 to 40 μM for a period of 24 h. After, the induction of the αS-3K::YFP transgene expression was initiated by adding dox (1 ug per mL, final concentration in culture media). Cells were incubated in the Incucyte Zoom 2000 platform (Essen Biosciences), where the acquisition of images (green, bright field) occurred continuously. After 48 hours of induction, inclusion formation and cell growth were assessed. To determine the level of different proteins by western blotting, α-syn monoclonal antibody 41312 (Thermofisher, Waltham, MA; 1:1000) and GAPDH polyclonal antibody (Sigma-Aldrich, St. Louis, MO, G9545; 1:5000) were used.
To evaluate the effects of compounds on inclusion formation and cell survival, M17D neuroblastoma cells that express an α-syn-derived αS-3K::YFP fusion protein in a doxycycline-inducible fashion were used. The cells were treated with 0.1% DMSO (control) and compounds 13, 2, 8, and 17 at various concentrations at t=24 hrs. Cells were induced with dox at t=48 hours. Punctate YFP signals were measured and normalized to 0.1% DMSO at t=96 hours. Eight independent experiments (N=8; n=14; except DMSO, n=30) were performed. The familial PD-linked α-syn missense mutation E46K is amplified by α-syn E35K+E46K+E61K (=αS3K), which results in round cytoplasmic α-syn-based inclusions in cultured cells. αS3K expression is responsible for cell stress/toxicity and delayed growth of neuroblastoma cells. […] Therefore, this assay was selected to evaluate the effect of the compound 13, as a weak to non-inhibitor of aggregation, and the three best anti-aggregation inhibitors, namely compounds 2, 8, and 17 (FIG. 6). […] Western blot analyses for total α-syn, normalized to calnexin (loading control), were performed to determine the compound effect on α-syn protein level due to degradation or non-specific effect on transgene expression.

T1 sequence (P10636 1-441 isoform P10636-8): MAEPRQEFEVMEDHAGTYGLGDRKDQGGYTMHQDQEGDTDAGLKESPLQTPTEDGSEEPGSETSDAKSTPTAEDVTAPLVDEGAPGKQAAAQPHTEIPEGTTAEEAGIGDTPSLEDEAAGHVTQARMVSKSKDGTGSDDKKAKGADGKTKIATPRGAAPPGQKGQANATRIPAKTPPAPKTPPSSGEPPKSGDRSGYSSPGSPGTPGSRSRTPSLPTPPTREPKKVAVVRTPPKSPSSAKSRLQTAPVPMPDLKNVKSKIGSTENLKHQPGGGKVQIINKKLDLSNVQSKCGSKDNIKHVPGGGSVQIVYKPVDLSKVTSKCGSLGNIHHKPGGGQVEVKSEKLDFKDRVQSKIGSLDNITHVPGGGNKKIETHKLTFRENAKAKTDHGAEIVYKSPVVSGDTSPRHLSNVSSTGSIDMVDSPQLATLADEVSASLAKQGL

Row | effect on tau isoform 2N4R fibril formation (ThT) (tau isoform 2N4R [1]) | Measured Solubility [3] [µM] | SMILES | α-syn fibril morphology (TEM) (α-syn) | tau isoform 2N4R fibrillization, ThT dose-response (tau isoform 2N4R [1]) | tau isoform 2N4R fibril morphology (TEM) (tau isoform 2N4R [2]) | reduction of inclusions [4] | toxicity (confluence) ([4]; 40 μM) | inclusion formation ([4]; 40 μM, M17D αS3K cells) | α-syn protein level (Western blot) ([4]; low concentration (5-10 μM) only)
1 | weaker anti-fibrilization effect | >300 | O=C(Nc1cccc2[nH]ccc12)c1ccccc1 [Compound 2, N-(1H-indol-4-yl)benzamide] | clear effect in reducing α-syn fibrillization | reduction in protein fibrillization when subjected to higher concentrations | levels of tau fibril at 20 μM were reduced; also recorded: Fewer and not well-defined fibrils | None of these compounds exhibited a significant reduction of inclusions | – | – | –
2 | good inhibitory effect | >300 | O=C(Nc1cccc2[nH]ccc12)c1ccc(F)cc1 [Compound 8, 4-fluoro-N-(1H-indol-4-yl)benzamide] | clear effect in reducing α-syn fibrillization; also recorded: most drastic effect, with immature fibrils surrounded by irregular globular structures | reduction in protein fibrillization when subjected to higher concentrations | levels of tau fibril at 20 μM were reduced | None of these compounds exhibited a significant reduction of inclusions | small degree of toxicity | reduced inclusion formation | reduced α-syn levels
3 | increased the fluorescence intensity | >300 | O=C(Nc1ccc2[nH]ccc2c1)c1ccccc1Cl [Compound 13, 2-chloro-N-(1H-indol-5-yl)benzamide] | mature fibrils after 24 hours | – | long fibrils admixed with amorphous materials and/or debris | None of these compounds exhibited a significant reduction of inclusions | – | – | –
